# Assay results published in PubChem BioAssay AID1645864 (Buhrlage Lab, Dana-Farber Cancer Institute and Novartis …, 2021).
# Activity calls are given as the source filed them.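 The calls were made as follows: active = maximal inhibition of USP17 at or above 30% in the confirmation dose-response, a value not among the printed readouts; inactive = the rest.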
# Molecular target: Ubiquitin carboxyl-terminal hydrolase 17-like protein 5 (Homo sapiens) (UniProt A8MUK1)
# Experiment: ubiquitin-specific protease 17 DUB inhibitors, concentration-effect assay, cell-free, verification of initial screening actives (AID 1645864)
# Conditions: purified USP17, ubiquitin-rhodamine cleavage fluorescence, 3 h
# Sequence of Ubiquitin carboxyl-terminal hydrolase 17-like protein 5 (Homo sapiens) (A8MUK1 whole entry, looked up): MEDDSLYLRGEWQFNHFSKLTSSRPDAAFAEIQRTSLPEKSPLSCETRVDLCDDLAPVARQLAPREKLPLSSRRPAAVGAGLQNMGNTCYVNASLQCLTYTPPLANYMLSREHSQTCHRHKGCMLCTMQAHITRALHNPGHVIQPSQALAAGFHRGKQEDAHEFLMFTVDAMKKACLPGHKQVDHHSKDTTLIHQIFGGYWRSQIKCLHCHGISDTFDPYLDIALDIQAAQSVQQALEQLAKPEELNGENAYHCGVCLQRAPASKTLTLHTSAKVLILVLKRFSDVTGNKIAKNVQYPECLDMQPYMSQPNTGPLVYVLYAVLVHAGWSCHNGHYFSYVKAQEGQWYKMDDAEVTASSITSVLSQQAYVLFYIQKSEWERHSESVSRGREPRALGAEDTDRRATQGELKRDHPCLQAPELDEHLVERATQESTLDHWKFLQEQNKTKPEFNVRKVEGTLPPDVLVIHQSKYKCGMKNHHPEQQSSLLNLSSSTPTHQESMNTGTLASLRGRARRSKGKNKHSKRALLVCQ
row,IC50,SMILES
1,25 µM,O=C(Nc1cccc(C(F)(F)F)c1)N1CCCn2c(nc3ccccc32)C1
2,1.08 µM,CCC[C@H]1O[C@@H]2CC(=O)O[C@@H]2C2=C1C(=O)c1c(O)cccc1C2=O
3,> 50 µM (inactive),O=C(COC(=O)c1ccc(NS(=O)(=O)c2ccc3c(c2)OCCO3)cc1)NCc1ccc(Cl)cc1
4,20.2 µM,Cc1ccn(-c2ccc(NC(=O)C3CCCCC3)cc2)n1
5,2.37 µM,CN(C)c1ccc(C2CC(c3c(O)n(C)c(=O)[nH]c3=O)=Nc3ccccc3S2)cc1 (configuration not stated)
6,> 50 µM (inactive),Cc1ccc(-c2ncc(C(=O)NCc3cccc(C)c3)c(-c3ccncc3)n2)cc1
7,35.6 µM,Cc1nc(-c2ccccc2F)sc1C(=O)Nc1cccnc1
8,5.08 µM,COC(=O)c1ccc2c(=O)n(CCCCCC(=O)NCCc3ccc(S(N)(=O)=O)cc3)c(=O)[nH]c2c1
9,2.17 µM,Clc1cc2nc(N3CCN(c4ccccn4)CC3)c3nncn3c2cc1Cl
10,5.29 µM,CCOc1ccc2c(c1)c(=O)c(C(=O)c1ccccc1)cn2CC(=O)Nc1ccccc1
11,27.1 µM,Cc1cccc(NC(=O)c2nn(C)c3ccccc3c2=O)c1
12,21 µM,N#Cc1cccc(NC(=O)Nc2cccn(Cc3ccccc3F)c2=O)c1
13,> 50 µM (inactive),COc1cccc(CCNC(=O)CCn2c(=O)c(C)nc3cc(C)c(C)cc32)c1
14,23 µM,Cc1cc(C2CC(=O)Nc3c2c(C)nn3-c2nc3ccccc3[nH]2)c(C)s1 (configuration not stated)
15,9.3 µM,COc1ccc(/C=C/C(=O)Nc2cccc(S(=O)(=O)Nc3ccccc3Cl)c2)c(OC)c1
16,12.9 µM,CC(=O)N1CCc2cc(S(=O)(=O)NC(Cc3ccccc3)C(=O)Nc3cccc(Cl)c3C)ccc21 (configuration not stated)
17,> 50 µM (inactive),COc1cc2c(cc1OC)-c1cc(NCc3cc(OC)c(OC)c(OC)c3)nc(=O)n1CC2
18,35.1 µM,Cc1ccc(NC(=O)c2sc3ncn(CC(=O)N4CCN(c5ccccn5)CC4)c(=O)c3c2C)c(Br)c1
19,30.4 µM,CC(OC(=O)CNC(=O)c1ccc(Br)cc1)C(=O)Nc1ccc2c(c1)OCCO2 (configuration not stated)
20,> 50 µM (inactive),O=C(Nc1ccc2c(c1)OCCO2)c1cc(CN2CCCC2)on1
21,15.7 µM,O=C(COC(=O)c1cc2c(s1)CCC2)c1ccc2[nH]c(=O)[nH]c2c1
22,> 50 µM (inactive),N[C@@H](Cc1ccccc1)C(=O)N1CCC2(CC1)CN(C(=O)c1ccc(Cl)cc1)CCO2
23,> 50 µM (inactive),CN(C(=O)CSc1nnc(-c2cc3ccccc3n2C)o1)c1ccccc1
24,> 50 µM (inactive),O=C1/C(=C/c2cn(-c3ccccc3)nc2-c2ccc3c(c2)OCCO3)Cc2ccccc21

row,IC50,SMILES
1,> 50 µM (inactive),COc1ccc(CNC(=O)CCc2nc3sc4c(c3c(=O)[nH]2)CCCCC4)cc1
2,19.5 µM,O=C(NC1(O)C(=O)c2ccccc2C1=O)c1ccc(-c2csnn2)cc1
3,9.93 µM,COc1ccc(CNC(=O)Nc2cccc3ccccc23)cc1
4,> 50 µM (inactive),COc1ccc(S(=O)(=O)N2CCN3Cc4ccccc4N(C)CC3C2)cc1 (configuration not stated)
5,> 50 µM (inactive),COc1cccc(NC(=O)C2CCN(C(=O)c3cc(-c4cccnc4)n[nH]3)CC2)c1
6,3.51 µM,Cc1nc2nc(SCc3nc4ccccc4n3C)[nH]c2cc1Br
7,46.1 µM,CC1=C(c2ccc(C)c(C)c2)S(=O)(=O)NC1=NCC(=O)NCCc1ccc(C)cc1
8,4.2 µM,O=C(Nc1cccc(Br)c1)c1cc(-c2cccnc2)n[nH]1
9,45.1 µM,O=C(Cn1nc2ccc(C(=O)NCc3ccccc3)cn2c1=O)Nc1ccc2c(c1)OCO2
10,39.7 µM,O=C(NCc1cccc(NC(=O)C2CC2)c1)Nc1cccc2ccccc12
11,34.3 µM,Nc1ncnc2c1ncn2[C@@H]1O[C@H](CO)C[C@@H]1O
12,> 50 µM (inactive),CC(C)(C)c1ccc(C(=O)Nc2ccc(Oc3cccnc3)nc2)cc1
13,28.1 µM,CCc1ccc2[nH]c3c(c(=O)c2c1)CN(CC(=O)NCc1ccc2c(c1)OCO2)CC3
14,26.9 µM,COc1ccc(OC)c(CCNC(=O)CCC2=NS(=O)(=O)c3ccc(C(F)(F)F)cc3N2)c1
15,> 50 µM (inactive),O=S(=O)(Cc1nnc(-c2ccccc2C(F)(F)F)o1)c1ccc(Cl)cc1
16,> 50 µM (inactive),CCN(Cc1ccccc1)S(=O)(=O)c1ccc(C(=O)Nc2ccc3c(c2)OCCO3)cc1
17,> 50 µM (inactive),COc1ccc(N2C(=O)[C@@H]3[C@H]4c5ccccc5C=CN4C(C(=O)Nc4ccc5c(c4)OCO5)[C@@H]3C2=O)cc1 (some centres not stated)
18,38.6 µM,O=C(NCc1ccc(-c2nc3cnccc3o2)cc1)c1ccccc1Br
19,> 50 µM (inactive),COc1cccc2cccc(O)c12
20,18.3 µM,O=C(Nc1ccc(F)cc1F)NC1CCN(c2ccccc2)C1=O (configuration not stated)
21,> 50 µM (inactive),Cc1sc2ncnc(OCc3ccc(F)cc3Cl)c2c1C
22,32.2 µM,COc1ccccc1S(=O)(=O)N1CC[C@@H]2CN(C)[C@@H]2C1
23,36.2 µM,CS(=O)(=O)c1ccc(NC(=O)C2CN(c3nc4c(F)cccc4s3)C2)cc1
24,> 50 µM (inactive),O=c1[nH]c(C2CCN(S(=O)(=O)c3ccc(S(=O)(=O)NC4CCCC4)cc3)CC2)nc2c1nnn2Cc1cccc(Cl)c1

row,IC50,SMILES
1,> 50 µM (inactive),c1cnc(-c2n[nH]c(C3CCN(C4CCNC4)CC3)n2)cn1 (configuration not stated)
2,> 50 µM (inactive),COc1ccc(CCNc2c(-c3ccccc3O)nc3cnccn23)cc1OC
3,23.7 µM,COc1c2nc3ccccc3oc-2cc(=O)c1OC
4,20.7 µM,CSc1nccc(-c2ccc(F)cc2)c1C#N
5,37.8 µM,Cn1cc(-c2cnc(-c3cccc(F)c3)nc2)cc1C(=O)NCc1cccnc1
6,> 50 µM (inactive),COc1ccc(C2CC(c3ccccc3)N(C(=O)C3CC3)c3ncnn32)cc1 (configuration not stated)
7,> 50 µM (inactive),COc1cccc(C(=O)Nc2ccc(-n3cnnn3)cc2)c1
8,> 50 µM (inactive),CC1CC(=O)N(Cc2ccc([N+](=O)[O-])cc2)c2ccccc2S1 (configuration not stated)
9,> 50 µM (inactive),O=C(CCCCn1c(=O)c2ccccc2n(CC(=O)Nc2ccc(F)c(Cl)c2)c1=O)NCc1ccco1
10,23.9 µM,Cn1c(COc2ccccc2)nnc1SCC(=O)Nc1ccc(N2CCOCC2)cc1
11,> 50 µM (inactive),Cc1ccc2nc(NC(=O)C3CCCN3S(=O)(=O)c3ccc4c(c3)OCCO4)sc2c1 (configuration not stated)
12,> 50 µM (inactive),Cc1cc(C)n(-c2cccc(C(=O)Nc3ccc4c(c3)CCN4S(C)(=O)=O)c2)n1
13,4.09 µM,O=c1[nH]c2ccc(S(=O)(=O)Nc3ccc(O)c4ccccc34)cc2[nH]1
14,> 50 µM (inactive),COc1ccccc1OCC(=O)Nc1ccc2c(c1)CCC(=O)N2Cc1ccccc1
15,> 50 µM (inactive),COc1ccc(-c2nnc(SCc3ccccc3C#N)o2)c(OC)c1
16,2.8 µM,Nc1c(C(=O)NCc2ccc3c(c2)OCO3)nnn1Cc1ccc(Br)cc1F
17,> 50 µM (inactive),O=C(Cc1ccccc1F)N1CCC2(CC1)CC1(CO2)Nc2ccccc2-n2cccc21 (configuration not stated)
18,> 50 µM (inactive),CC(c1ccccc1)c1nc(-c2ccc(=O)[nH]c2)no1 (configuration not stated)
19,> 50 µM (inactive),O=C(NCc1nc2ccccc2[nH]1)c1cccc(S(=O)(=O)N2CCc3ccccc32)c1
20,> 50 µM (inactive),O=c1cc(CNc2ccc(Br)cc2)nc2nc(-c3ccccc3)[nH]n12
21,> 50 µM (inactive),CCn1ccc2c(cc(C(=O)Nc3cc(F)ccc3F)n2C)c1=O
22,> 50 µM (inactive),COc1ccc(NC(=O)c2nnn(-c3ccccc3F)c2C)cc1OC
23,33.3 µM,COc1ccccc1CC(=O)Nc1nc2ccccc2[nH]1
24,> 50 µM (inactive),Nc1nonc1C(=O)NCCNCc1cccc(OCc2ccc(Cl)cc2)c1

row,IC50,SMILES
1,> 50 µM (inactive),Cc1cc(-n2c(C)cc(-c3csc(N)n3)c2C)no1
2,15.8 µM,O=C(COc1ccc2ccccc2c1)Nc1cccc2ccccc12
3,9.4 µM,CCCc1cc(=O)oc2cc(OCC(=O)NCc3ccc(OC)cc3)ccc12
4,> 50 µM (inactive),CN1C(=O)c2cc(NC(=O)c3ccccc3Cl)ccc2Oc2ccccc21
5,4.2 µM,COc1ccccc1CNC(=O)C1CCCN(c2nc3ccsc3c(=O)s2)C1 (configuration not stated)
6,2.62 µM,COc1cc(C(=O)NC(Cc2ccccc2)c2nc3ccccc3[nH]2)cc(OC)c1OC (configuration not stated)
7,> 50 µM (inactive),O=C(Nc1ccc2c(c1)OCCO2)c1ccc(N2CCCCC2)nn1
8,0.202 µM,COc1ccc(Cl)cc1NC(=O)c1cc(-c2ccccn2)n[nH]1
9,> 50 µM (inactive),O=c1[nH]c2ccccc2cc1CN(Cc1ccco1)S(=O)(=O)c1ccc(F)cc1
10,> 50 µM (inactive),Cc1ccc(C)c(Nc2cc(C)nc3nc(-c4ccco4)nn23)c1
11,> 50 µM (inactive),O=C(O)c1nccnc1C(=O)N1CCc2ccccc2C1
12,3.31 µM,Clc1cncc(Oc2nc(-c3cccnc3)nc3ccccc23)c1
13,> 50 µM (inactive),Cc1ncncc1C(=O)N1CCCC(C)(c2ncc(Cc3cccc(F)c3)o2)C1 (configuration not stated)
14,0.339 µM,Cc1c(OCC(=O)Nc2nc3ccccc3[nH]2)ccc2c3c(c(=O)oc12)CCC3
15,2.74 µM,COc1ccc(C(=O)Nc2n[nH]c(C)c2-c2cccc(C)c2)c(OC)c1
16,> 50 µM (inactive),O=C(COc1nsnc1N1CCOCC1)Nc1ccc(F)c(F)c1
17,34.2 µM,Cc1ccc(CNC(=O)c2ccc(N3C(=O)[C@@H]4Cc5ccccc5CN4C3=O)cc2)cc1
18,> 50 µM (inactive),O=C(/C=C/c1ccccc1)N1CCN(C2=NS(=O)(=O)c3ccccc32)CC1
19,30.9 µM,O=C1Nc2c(Cl)cc(Cl)cc2C1(O)c1sc(NC2CCCCC2)nc1-c1ccccc1 (configuration not stated)
20,6.1 µM,O=C1C(O)=C(c2ccc(O)cc2)C(=O)C(O)=C1c1ccccc1
21,28.2 µM,COc1cccc(NC(=O)C2C3C=CC4(O3)C2C(=O)N(CCc2ccccc2Cl)C4C(=O)NC2CCCCC2)c1 (configuration not stated)
22,35.2 µM,O=C(COc1ncnc2ccccc12)Nc1ccc2c(c1)OC1(CCCC1)O2
23,> 50 µM (inactive),COc1ccc(NC(=O)c2nnn(-c3cccc(C)c3)c2C)cc1

row,SMILES,IC50
1,CC1CC[C@]2(NC1)O[C@H]1C[C@H]3[C@@H]4CC[C@H]5C[C@@H](O[C@@H]6O[C@H](CO)[C@H](O[C@@H]7O[C@H](CO)[C@@H](O)[C@H](O[C@@H]8OC[C@@H](O)[C@H](O)[C@H]8O)[C@H]7O[C@@H]7O[C@H](CO)[C@@H](O)[C@H](O)[C@H]7O)[C@H](O)[C@H]6O)CC[C@]5(C)[C@H]4CC[C@]3(C)[C@H]1[C@@H]2C (some centres not stated),40 µM
2,Cn1ccnc1CN1C[C@H]2CCN(c3ncccn3)C[C@H]2C1,> 50 µM (inactive)
